Target: T1, SIRT1 (Homo sapiens, UniProt Q96EB6)
T1 sequence (Q96EB6 1-747): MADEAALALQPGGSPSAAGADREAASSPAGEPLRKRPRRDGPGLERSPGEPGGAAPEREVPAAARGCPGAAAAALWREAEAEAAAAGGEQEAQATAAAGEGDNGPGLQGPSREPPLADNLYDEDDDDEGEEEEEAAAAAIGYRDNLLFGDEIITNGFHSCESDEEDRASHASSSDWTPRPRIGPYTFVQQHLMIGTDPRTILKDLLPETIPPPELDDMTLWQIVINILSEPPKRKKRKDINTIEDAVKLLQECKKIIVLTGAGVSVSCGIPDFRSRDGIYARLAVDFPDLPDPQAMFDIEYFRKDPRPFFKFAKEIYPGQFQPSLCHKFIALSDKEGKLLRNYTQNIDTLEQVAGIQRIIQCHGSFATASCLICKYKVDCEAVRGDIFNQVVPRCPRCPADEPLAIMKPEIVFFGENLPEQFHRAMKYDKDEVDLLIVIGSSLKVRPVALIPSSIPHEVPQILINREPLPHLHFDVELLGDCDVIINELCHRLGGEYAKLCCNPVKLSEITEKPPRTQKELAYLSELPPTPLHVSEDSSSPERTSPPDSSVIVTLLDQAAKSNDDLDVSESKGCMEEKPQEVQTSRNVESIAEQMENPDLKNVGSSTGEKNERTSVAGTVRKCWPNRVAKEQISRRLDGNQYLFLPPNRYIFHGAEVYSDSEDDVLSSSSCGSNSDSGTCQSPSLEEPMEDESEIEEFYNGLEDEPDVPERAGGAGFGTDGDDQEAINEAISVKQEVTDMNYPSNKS
Experiment: Mass spectrometry based SIRT1 deacetylation assay (activation)
Assay type: biochemical
Conditions: 10 nM SIRT1, 0.5 μM peptide substrate, 120 μM βNAD+, 25 min at 25° C.
Summary of the method: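 Activation reported as EC1.5, the compound concentration producing 150% of DMSO-control deacetylation, plus maximum fold activation. Readout is mass-spectrometric ratio of deacetylated to acetylated p53-based peptide (0.5 μM) after 25 min, 25 °C, with 120 μM βNAD+ and 10 nM His-tagged human SIRT1, pH 8.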

SMILES	EC1.5 (concentration of test compound that results in 150% activation of SIRT1)	% Fold Act. (percent maximum fold activation)
O=C(Nc1cccc2ccc(-c3cc(F)cc(C(F)(F)F)c3)nc12)c1cscn1 [Compound 169]	C (EC1.5>25 uM)	
O=C(Nc1cccc2ccc(-c3ccc(F)c(C(F)(F)F)c3)nc12)c1ccccc1 [Compound 170]	C (EC1.5>25 uM)	
FC(F)(F)c1ccc(-c2ccc3cccc(NCc4cccnc4)c3n2)cc1 [Compound 171]	C (EC1.5>25 uM)	
c1cncc(CNc2cccc3ccc(-c4cccc(N5CCOCC5)c4)nc23)c1 [Compound 172]	C (EC1.5>25 uM)	
c1cncc(CNc2cccc3ccc(-c4cccc(N5CCCC5)c4)nc23)c1 [Compound 173]	C (EC1.5>25 uM)	
O=C(Nc1cccc2ccc(-c3ccccc3O)nc12)c1cscn1 [Compound 174]	B (EC1.5 1-25 uM)	A (Fold activation >200%)
O=C(Nc1cccc2ccc(-c3ccccc3OCCN3CCOCC3)nc12)c1cscn1 [Compound 175]	B (EC1.5 1-25 uM)	A (Fold activation >200%)
O=C(Nc1cccc2ccc(-c3ccc(F)nc3)nc12)c1cscn1 [Compound 176]	A (EC1.5<1.0 uM)	A (Fold activation >200%)
O=C(Nc1nc(CN2CCOCC2)cs1)c1cccc2ccc(-c3cccc(C(F)(F)F)c3)nc12 [Compound 177]	A (EC1.5<1.0 uM)	A (Fold activation >200%)
O=C(Nc1nc(CN2CCOCC2)cs1)c1cccc2ccc(-c3cccc(OC(F)(F)F)c3)nc12 [Compound 178]	A (EC1.5<1.0 uM)	A (Fold activation >200%)
O=C(Nc1nccs1)c1cccc2ccc(-c3ccnc(N4CCC4)c3)nc12 [Compound 179]	A (EC1.5<1.0 uM)	A (Fold activation >200%)
O=C(Nc1nccs1)c1cccc2ccc(-c3cccnc3)nc12 [Compound 180]	A (EC1.5<1.0 uM)	B (Fold Activation <200%)
O=C(Nc1cnccn1)c1cccc2ccc(-c3cccnc3)nc12 [Compound 181]	C (EC1.5>25 uM)	
O=C(Nc1ccccn1)c1cccc2ccc(-c3cccnc3)nc12 [Compound 182]	A (EC1.5<1.0 uM)	B (Fold Activation <200%)
O=C(Nc1cccnc1)c1cccc2ccc(-c3cccnc3)nc12 [Compound 183]	C (EC1.5>25 uM)	
O=C(Nc1ccccn1)c1cccc2cc(C(F)(F)F)c(-c3ccccc3)nc12 [Compound 184]	C (EC1.5>25 uM)	
O=C(Nc1cccc2ccc(-c3cccc(O)c3)nc12)c1cscn1 [Compound 185]	B (EC1.5 1-25 uM)	B (Fold Activation <200%)
O=C(Nc1cccc2ccc(-c3ccc(O)cc3)nc12)c1cscn1 [Compound 186]	B (EC1.5 1-25 uM)	A (Fold activation >200%)
O=C(Nc1cccc2ccc(-c3cccc(C(F)(F)F)c3)nc12)c1cccc(OC[C@@H](O)CO)c1 [Compound 187]	A (EC1.5<1.0 uM)	A (Fold activation >200%)
O=C(Nc1ncc(CN2CCOCC2)s1)c1cccc2ccc(-c3cccc(C(F)(F)F)c3)nc12 [Compound 188]	A (EC1.5<1.0 uM)	A (Fold activation >200%)
O=C(Nc1ncc(CN2CCOCC2)s1)c1cccc2ccc(-c3cccc(OC(F)(F)F)c3)nc12 [Compound 189]	A (EC1.5<1.0 uM)	A (Fold activation >200%)
O=C(Nc1nc(CN2CCOCC2)cs1)c1cccc2ccc(-c3cccnc3)nc12 [Compound 190]	A (EC1.5<1.0 uM)	A (Fold activation >200%)

SMILES	EC1.5 (concentration of test compound that results in 150% activation of SIRT1)	% Fold Act. (percent maximum fold activation)
O=C(Nc1ncc(CN2CCOCC2)s1)c1cccc2ccc(-c3cccnc3)nc12 [Compound 191]	B (EC1.5 1-25 uM)	A (Fold activation >200%)
O=C(Nc1nccs1)c1cccc2cc(C(F)(F)F)c(-c3ccccc3)nc12 [Compound 192]	C (EC1.5>25 uM)	
O=C(Nc1cccnc1)c1cccc2cc(C(F)(F)F)c(-c3ccccc3)nc12 [Compound 193]	C (EC1.5>25 uM)	
O=C(Nc1ncnc2ccc(-c3cccc(OC(F)(F)F)c3)nc12)c1ccccn1 [Compound 194]	A (EC1.5<1.0 uM)	A (Fold activation >200%)
O=C(Nc1cccc2ccc(-c3cccc(C(F)(F)F)c3)nc12)c1cocn1 [Compound 195]	A (EC1.5<1.0 uM)	B (Fold Activation <200%)
Cc1ncccc1-c1ccc2cccc(NC(=O)c3cscn3)c2n1 [Compound 196]	A (EC1.5<1.0 uM)	A (Fold activation >200%)
Cc1cc(-c2ccc3cccc(NC(=O)c4cscn4)c3n2)ccn1 [Compound 197]	A (EC1.5<1.0 uM)	A (Fold activation >200%)
Cc1ccc(-c2ccc3cccc(NC(=O)c4cscn4)c3n2)cn1 [Compound 198]	A (EC1.5<1.0 uM)	A (Fold activation >200%)
O=C(Nc1cccc2ccc(-c3cncc(F)c3)nc12)c1cscn1 [Compound 199]	C (EC1.5>25 uM)	
O=C(Nc1cccc2ccc(-c3cccc(N4CCOCC4)c3)nc12)c1cscn1 [Compound 200]	A (EC1.5<1.0 uM)	A (Fold activation >200%)
O=C(Nc1cccc2ccc(-c3cccc(N4CCCC4)c3)nc12)c1cscn1 [Compound 201]	C (EC1.5>25 uM)	
CN1CCOc2cc(-c3ccc4cccc(NC(=O)c5cscn5)c4n3)ccc21 [Compound 202]	A (EC1.5<1.0 uM)	A (Fold activation >200%)
O=C(Nc1cccc2ccc(-c3cccc(C(F)(F)F)c3)nc12)c1cccc(OC[C@@H](O)CO)n1 [Compound 203]	A (EC1.5<1.0 uM)	A (Fold activation >200%)
O=C(Nc1cccc2ccc(-c3cccc(C(F)(F)F)c3)nc12)c1cccs1 [Compound 204]	B (EC1.5 1-25 uM)	B (Fold Activation <200%)
COc1cccc(C(=O)Nc2cccc3ccc(-c4cccc(C(F)(F)F)c4)nc23)c1 [Compound 205]	B (EC1.5 1-25 uM)	B (Fold Activation <200%)
O=C(Nc1cccc2ccc(-c3cccc(C(F)(F)F)c3)nc12)c1csc(-c2ccccc2)n1 [Compound 206]	C (EC1.5>25 uM)	
O=C(Nc1cccc(OC[C@@H](O)CO)c1)c1cccc2ccc(-c3cccc(C(F)(F)F)c3)nc12 [Compound 207]	A (EC1.5<1.0 uM)	A (Fold activation >200%)
O=C(Nc1ccncn1)c1cccc2ccc(-c3cccnc3)nc12 [Compound 208]	C (EC1.5>25 uM)	
O=C(Nc1nccs1)c1cccc2ccc(-c3ccnc(N4CCOCC4)c3)nc12 [Compound 209]	A (EC1.5<1.0 uM)	B (Fold Activation <200%)
O=C(Nc1ncnc2ccc(-c3cccc(OC(F)(F)F)c3)nc12)c1cccnc1 [Compound 210]	B (EC1.5 1-25 uM)	A (Fold activation >200%)
O=C(Nc1ncnc2ccc(-c3cccc(OC(F)(F)F)c3)nc12)c1cccc(C(F)(F)F)c1 [Compound 211]	C (EC1.5>25 uM)	

Reference: patent publication US8685970B2, “Quinolines and related analogs as sirtuin modulators” (GlaxoSmithKline, LLC, priority 2008, dated 2014)
